The source made the active and inactive calls.
Tests used:
[1] = HepG2 cell cytotoxicity, dose response, cytotoxicity control, ATP luminescence, cherry-pick, activator set 2 (AID 1053143); assay type: functional, cell-based
[2] = molecular target: T1, Bcl-2-related protein A1 (Mus musculus, UniProt Q07440); test: Bfl-1 inhibitors blocking BH3 peptide binding, confirmation, biochemical, TR-FRET, mouse Bfl-1 (AID 621);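 further: TR-FRET binding of GST-Bfl-1 to FITC-labelled Bid peptide via terbium antibody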
T1 sequence (Q07440 whole entry): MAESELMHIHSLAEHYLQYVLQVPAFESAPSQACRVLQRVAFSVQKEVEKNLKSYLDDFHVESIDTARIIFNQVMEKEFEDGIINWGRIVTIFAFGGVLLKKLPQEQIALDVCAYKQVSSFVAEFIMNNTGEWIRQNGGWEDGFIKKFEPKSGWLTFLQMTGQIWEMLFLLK

[3] = molecular target: T1, Bcl-2-related protein A1; test: Bfl-1 binding inhibitors, SAR follow-up, biochemical, fluorescence polarization (AID 1070)
[4] = molecular target: T2, Beta-lactamase (Pseudomonas aeruginosa, UniProt Q79MP6); test: IMP-1 metallo-beta-lactamase inhibitors, dose response, selectivity assay for VIM-2 inhibitor project, biochemical, epi-absorbance (AID 1920)
[5] = molecular target: T2, Beta-lactamase; test: […] counterscreen for selective VIM-2 inhibitors: dose response biochemical high throughput screening assay to identify inhibitors of IMP-1 metallo-beta-lactamase.
[6] = molecular target: Beta-lactamase (Salmonella choleraesuis (strain SC-B67), UniProt Q5J463); test: Epi-absorbance-based counterscreen for selective VIM-2 inhibitors: dose response biochemical high throughput screening assay to identify inhibitors of TEM-1 serine-beta-lactamase.
[7] = molecular target: Fructose-bisphosphate aldolase (Mycobacterium tuberculosis, UniProt P9WQA3); test: Fluorescence-based biochemical high throughput dose response assay for inhibitors of the fructose-bisphosphate aldolase (FBA) of M. tuberculosis.; assay type: functional
[8] = cells; assay type: functional, cell-based
[9] = cells; assay type: functional, cell-based; remark: listed apart in the source
[10] = molecular target: T3, Sentrin-specific protease 7 (Homo sapiens, UniProt Q9BQF6); assay type: functional;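 further: Luminescence-based dose-response confirmation of ultra-high-throughput screening hits, measuring inhibition of SENP7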
T3 sequence (Q9BQF6 whole entry): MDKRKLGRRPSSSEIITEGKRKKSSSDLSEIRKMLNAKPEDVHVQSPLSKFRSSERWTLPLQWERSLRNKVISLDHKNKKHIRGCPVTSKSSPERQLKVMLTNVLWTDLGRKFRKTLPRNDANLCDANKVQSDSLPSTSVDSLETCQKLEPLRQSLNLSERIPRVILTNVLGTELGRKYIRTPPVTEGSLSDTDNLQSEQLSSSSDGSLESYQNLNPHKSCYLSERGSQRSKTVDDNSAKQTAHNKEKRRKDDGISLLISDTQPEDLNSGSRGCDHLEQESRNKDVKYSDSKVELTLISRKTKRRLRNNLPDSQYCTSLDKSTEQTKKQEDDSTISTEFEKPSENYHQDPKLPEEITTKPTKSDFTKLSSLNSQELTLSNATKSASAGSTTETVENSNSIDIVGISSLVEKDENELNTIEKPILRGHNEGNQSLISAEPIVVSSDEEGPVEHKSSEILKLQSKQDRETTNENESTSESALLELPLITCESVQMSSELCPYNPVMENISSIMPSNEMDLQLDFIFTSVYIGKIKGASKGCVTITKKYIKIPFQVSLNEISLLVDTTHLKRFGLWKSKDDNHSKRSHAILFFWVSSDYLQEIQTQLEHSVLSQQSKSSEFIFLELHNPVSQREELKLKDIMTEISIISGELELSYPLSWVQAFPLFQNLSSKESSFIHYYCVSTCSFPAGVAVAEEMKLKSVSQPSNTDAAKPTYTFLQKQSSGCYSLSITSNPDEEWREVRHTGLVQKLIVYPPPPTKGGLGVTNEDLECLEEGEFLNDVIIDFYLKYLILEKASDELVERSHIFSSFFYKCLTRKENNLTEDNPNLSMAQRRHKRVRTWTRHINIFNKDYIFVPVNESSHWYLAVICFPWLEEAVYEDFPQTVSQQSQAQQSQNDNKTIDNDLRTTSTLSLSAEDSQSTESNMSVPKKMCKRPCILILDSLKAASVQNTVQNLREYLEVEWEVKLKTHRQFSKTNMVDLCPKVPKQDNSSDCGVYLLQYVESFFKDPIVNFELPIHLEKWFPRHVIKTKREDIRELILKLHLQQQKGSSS

[11] = molecular target: T4, Sentrin-specific protease 8 (Homo sapiens, UniProt Q96LD8); assay type: functional;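 further: luminescence read-out of SENP8 inhibition, dose-response confirmation following an ultra-high-throughput screen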
T4 sequence (Q96LD8 whole entry): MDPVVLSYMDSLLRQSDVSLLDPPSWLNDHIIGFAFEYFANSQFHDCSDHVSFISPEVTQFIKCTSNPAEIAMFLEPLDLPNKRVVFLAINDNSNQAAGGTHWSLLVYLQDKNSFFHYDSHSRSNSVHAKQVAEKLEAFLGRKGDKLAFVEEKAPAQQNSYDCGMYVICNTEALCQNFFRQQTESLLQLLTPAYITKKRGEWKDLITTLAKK

[12] = molecular target: T5, Sentrin-specific protease 6 (Homo sapiens, UniProt Q9GZR1); assay type: functional;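 further: Luminescence-based dose-response confirmatory assay of SENP6 inhibition, following up an ultra-high-throughput screen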
T5 sequence (Q9GZR1 whole entry): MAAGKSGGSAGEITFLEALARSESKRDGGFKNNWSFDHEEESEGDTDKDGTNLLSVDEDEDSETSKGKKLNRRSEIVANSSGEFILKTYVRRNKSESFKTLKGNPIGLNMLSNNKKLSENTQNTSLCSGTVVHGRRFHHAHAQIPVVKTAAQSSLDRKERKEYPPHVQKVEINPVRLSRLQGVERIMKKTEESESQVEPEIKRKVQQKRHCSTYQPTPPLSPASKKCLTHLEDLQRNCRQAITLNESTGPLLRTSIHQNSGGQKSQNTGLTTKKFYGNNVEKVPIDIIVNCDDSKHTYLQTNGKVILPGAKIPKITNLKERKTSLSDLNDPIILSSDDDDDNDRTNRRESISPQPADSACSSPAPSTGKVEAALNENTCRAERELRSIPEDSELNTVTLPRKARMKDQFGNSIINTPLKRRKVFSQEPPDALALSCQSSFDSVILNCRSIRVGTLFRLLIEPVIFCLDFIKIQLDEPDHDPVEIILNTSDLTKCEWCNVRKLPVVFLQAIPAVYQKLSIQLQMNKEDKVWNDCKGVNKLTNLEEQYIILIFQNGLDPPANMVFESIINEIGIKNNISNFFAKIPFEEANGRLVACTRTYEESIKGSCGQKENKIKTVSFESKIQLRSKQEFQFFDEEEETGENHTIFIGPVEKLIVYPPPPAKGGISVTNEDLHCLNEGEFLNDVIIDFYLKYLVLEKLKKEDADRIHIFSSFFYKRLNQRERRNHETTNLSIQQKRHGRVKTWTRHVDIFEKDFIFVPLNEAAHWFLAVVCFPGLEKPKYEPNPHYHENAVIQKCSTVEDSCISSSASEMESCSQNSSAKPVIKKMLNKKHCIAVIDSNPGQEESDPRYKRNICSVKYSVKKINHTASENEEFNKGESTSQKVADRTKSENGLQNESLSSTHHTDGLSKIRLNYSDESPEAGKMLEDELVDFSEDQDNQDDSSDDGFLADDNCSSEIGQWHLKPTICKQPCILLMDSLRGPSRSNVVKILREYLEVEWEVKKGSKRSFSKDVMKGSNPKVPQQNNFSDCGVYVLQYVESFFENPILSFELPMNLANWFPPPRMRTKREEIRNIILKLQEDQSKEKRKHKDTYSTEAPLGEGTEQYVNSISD

[13] = molecular target: T6, Caspase-3 (Homo sapiens, UniProt P42574); assay type: functional;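 further: Dose-response selectivity test against caspase-3 for candidate inhibitors of sentrin-specific proteases (SENPs)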
T6 sequence (P42574 whole entry): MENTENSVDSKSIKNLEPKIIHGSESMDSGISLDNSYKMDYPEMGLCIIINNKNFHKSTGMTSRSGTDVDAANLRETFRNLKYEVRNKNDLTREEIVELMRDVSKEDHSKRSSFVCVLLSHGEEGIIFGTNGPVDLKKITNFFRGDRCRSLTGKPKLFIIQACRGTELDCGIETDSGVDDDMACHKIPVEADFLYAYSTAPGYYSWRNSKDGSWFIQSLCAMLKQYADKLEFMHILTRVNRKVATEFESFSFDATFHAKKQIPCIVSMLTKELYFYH

[14] = molecular target: T7, Trace amine-associated receptor 1 (Homo sapiens, UniProt Q96RJ0); test: Counterscreen for antagonists of the human trace amine associated receptor 1 (hTAAR1): Fluorescence-based cell-based high throughput dose response assay to identify TAAR1 Agonists.; assay type: functional
T7 sequence (Q96RJ0 whole entry): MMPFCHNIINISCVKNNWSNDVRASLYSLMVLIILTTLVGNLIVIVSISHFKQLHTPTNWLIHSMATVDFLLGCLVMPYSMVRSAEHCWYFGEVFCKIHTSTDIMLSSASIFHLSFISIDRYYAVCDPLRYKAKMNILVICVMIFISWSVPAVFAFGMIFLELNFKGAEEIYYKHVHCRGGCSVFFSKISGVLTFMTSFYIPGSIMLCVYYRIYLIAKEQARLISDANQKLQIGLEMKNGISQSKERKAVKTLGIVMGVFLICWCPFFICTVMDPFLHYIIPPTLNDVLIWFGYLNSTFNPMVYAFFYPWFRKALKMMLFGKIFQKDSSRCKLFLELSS

[15] = Counterscreen for antagonists of the human trace amine associated receptor 1 (hTAAR1): Fluorescence-based cell-based high throughput dose response assay to identify nonselective Ga16 antagonists.; assay type: functional
[16] = Counterscreen for […] of the human trace amine associated receptor 1 (TAAR1): Fluorescence-based cell-based high throughput dose response assay to identify nonselective Ga16 agonists.; assay type: functional
[17] = molecular target: T7, Trace amine-associated receptor 1; test: Fluorescence-based cell-based high throughput dose response assay to identify antagonists of the human trace amine associated receptor 1 (TAAR1).; assay type: functional
[18] = cells; assay type: functional, cell-based; remark: listed apart in the source
[19] = molecular target: T7, Trace amine-associated receptor 1; test: Counterscreen for agonists of the human trace amine associated receptor 1 (hTAAR1): Fluorescence-based cell-based high throughput dose response assay to identify hTAAR1 agonist that also desensitize TAAR1 receptor response.; assay type: functional
[20] = molecular target: T7, Trace amine-associated receptor 1; test: Fluorescence-based cell-based high throughput dose response assay to identify agonists of the human trace amine associated receptor 1 (TAAR1).; assay type: functional
[21] = cells; assay type: functional, cell-based; remark: listed apart in the source
[22] = molecular target: Ras and Rab interactor 1/Tyrosine-protein kinase ABL1 (Homo sapiens, UniProt P00519+Q13671); assay type: functional;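 further: biochemical TR-FRET dose-response test measuring inhibition of binding between Rin1 and Abl proteins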
[23] = molecular target: Paired box protein Pax-8 (Homo sapiens, UniProt Q06710); test: inhibitors of PAX8-driven TPO luciferase reporter, dose response, RMG-I cells, cherry-pick (AID 687027); assay type: functional, cell-based;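 further: luciferase reporter driven by Pax8 target thyroperoxidase promoter measured by SteadyGlo luminescence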
[24] = cytotoxicity in OVCAR8 ovarian cancer cells, dose response, PAX8 project, cell-based, plate reader, dry powder samples (AID 743197); assay type: functional; settings: OVCAR-8
[25] = T. cruzi growth inhibition in host cells, dose response, cell-based, plate reader, dry powder, set 2 (AID 652275); assay type: functional

T2 sequence (Q79MP6 whole entry): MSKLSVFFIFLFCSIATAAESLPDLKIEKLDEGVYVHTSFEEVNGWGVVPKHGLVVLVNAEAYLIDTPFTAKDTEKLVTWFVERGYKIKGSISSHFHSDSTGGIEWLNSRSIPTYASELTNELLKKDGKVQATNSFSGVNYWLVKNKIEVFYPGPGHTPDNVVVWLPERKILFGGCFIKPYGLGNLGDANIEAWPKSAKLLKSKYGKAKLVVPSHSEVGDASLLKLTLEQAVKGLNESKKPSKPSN
Sequence of Fructose-bisphosphate aldolase (P9WQA3 whole entry): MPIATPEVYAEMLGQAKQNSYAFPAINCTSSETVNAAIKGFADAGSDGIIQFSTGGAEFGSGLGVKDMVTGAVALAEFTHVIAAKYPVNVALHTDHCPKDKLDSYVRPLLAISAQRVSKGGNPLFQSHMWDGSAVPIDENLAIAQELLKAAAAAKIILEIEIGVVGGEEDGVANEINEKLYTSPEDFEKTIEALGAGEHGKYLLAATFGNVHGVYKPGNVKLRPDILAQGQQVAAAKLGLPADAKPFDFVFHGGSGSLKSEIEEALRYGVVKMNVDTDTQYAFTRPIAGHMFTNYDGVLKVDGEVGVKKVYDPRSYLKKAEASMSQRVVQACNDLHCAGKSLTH
Sequence of Beta-lactamase (Salmonella choleraesuis (strain SC-B67), UniProt Q5J463) (Q5J463 whole entry): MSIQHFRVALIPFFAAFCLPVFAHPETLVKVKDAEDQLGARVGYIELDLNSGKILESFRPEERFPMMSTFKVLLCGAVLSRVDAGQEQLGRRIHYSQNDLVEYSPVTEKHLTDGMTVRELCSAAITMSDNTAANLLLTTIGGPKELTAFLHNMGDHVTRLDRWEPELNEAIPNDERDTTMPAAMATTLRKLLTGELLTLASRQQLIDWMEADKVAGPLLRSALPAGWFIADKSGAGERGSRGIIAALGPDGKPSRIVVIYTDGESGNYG
Sequence of Paired box protein Pax-8 (Q06710 whole entry): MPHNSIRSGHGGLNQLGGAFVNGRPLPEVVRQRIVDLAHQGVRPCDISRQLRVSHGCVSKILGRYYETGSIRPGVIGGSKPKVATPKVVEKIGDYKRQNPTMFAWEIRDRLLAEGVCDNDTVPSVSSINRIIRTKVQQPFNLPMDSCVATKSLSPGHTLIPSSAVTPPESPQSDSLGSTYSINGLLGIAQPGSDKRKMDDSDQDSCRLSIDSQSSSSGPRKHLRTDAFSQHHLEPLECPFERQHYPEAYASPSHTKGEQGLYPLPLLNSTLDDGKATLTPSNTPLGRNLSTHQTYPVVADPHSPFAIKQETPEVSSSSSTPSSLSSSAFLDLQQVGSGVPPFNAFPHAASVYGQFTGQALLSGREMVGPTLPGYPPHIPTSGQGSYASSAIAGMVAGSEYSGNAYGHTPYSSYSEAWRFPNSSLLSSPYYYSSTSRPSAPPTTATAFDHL
Sequence of Ras and Rab interactor 1/Tyrosine-protein kinase ABL1 (P00519 whole entry): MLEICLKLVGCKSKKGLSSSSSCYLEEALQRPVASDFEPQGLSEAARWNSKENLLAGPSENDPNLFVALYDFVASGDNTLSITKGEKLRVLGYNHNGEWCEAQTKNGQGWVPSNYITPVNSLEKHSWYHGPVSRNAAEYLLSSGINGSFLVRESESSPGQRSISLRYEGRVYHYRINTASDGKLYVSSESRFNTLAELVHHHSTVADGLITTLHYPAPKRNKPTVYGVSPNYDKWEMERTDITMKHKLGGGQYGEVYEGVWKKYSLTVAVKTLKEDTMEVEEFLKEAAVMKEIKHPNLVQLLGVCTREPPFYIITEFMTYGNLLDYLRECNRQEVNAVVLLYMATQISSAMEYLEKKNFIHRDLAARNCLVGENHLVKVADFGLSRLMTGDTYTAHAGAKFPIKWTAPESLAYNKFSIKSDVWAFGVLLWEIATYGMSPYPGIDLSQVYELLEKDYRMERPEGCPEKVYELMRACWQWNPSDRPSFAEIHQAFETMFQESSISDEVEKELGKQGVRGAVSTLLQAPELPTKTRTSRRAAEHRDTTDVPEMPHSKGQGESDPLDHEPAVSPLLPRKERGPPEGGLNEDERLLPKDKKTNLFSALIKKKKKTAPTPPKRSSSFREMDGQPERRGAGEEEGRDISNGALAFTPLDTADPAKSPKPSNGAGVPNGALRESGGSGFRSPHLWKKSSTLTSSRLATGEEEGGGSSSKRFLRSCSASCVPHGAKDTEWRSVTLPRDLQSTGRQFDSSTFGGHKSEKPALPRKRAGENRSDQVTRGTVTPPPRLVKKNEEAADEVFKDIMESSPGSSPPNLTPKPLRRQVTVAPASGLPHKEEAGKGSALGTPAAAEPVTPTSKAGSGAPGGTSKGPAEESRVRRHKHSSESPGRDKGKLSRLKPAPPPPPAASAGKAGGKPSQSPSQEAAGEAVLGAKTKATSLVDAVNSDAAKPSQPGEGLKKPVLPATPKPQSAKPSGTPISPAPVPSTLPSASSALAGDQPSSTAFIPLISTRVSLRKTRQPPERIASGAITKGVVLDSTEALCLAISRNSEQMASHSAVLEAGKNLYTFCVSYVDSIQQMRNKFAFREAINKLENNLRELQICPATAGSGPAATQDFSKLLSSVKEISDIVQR
Sequence of Ras and Rab interactor 1/Tyrosine-protein kinase ABL1 (Q13671 whole entry): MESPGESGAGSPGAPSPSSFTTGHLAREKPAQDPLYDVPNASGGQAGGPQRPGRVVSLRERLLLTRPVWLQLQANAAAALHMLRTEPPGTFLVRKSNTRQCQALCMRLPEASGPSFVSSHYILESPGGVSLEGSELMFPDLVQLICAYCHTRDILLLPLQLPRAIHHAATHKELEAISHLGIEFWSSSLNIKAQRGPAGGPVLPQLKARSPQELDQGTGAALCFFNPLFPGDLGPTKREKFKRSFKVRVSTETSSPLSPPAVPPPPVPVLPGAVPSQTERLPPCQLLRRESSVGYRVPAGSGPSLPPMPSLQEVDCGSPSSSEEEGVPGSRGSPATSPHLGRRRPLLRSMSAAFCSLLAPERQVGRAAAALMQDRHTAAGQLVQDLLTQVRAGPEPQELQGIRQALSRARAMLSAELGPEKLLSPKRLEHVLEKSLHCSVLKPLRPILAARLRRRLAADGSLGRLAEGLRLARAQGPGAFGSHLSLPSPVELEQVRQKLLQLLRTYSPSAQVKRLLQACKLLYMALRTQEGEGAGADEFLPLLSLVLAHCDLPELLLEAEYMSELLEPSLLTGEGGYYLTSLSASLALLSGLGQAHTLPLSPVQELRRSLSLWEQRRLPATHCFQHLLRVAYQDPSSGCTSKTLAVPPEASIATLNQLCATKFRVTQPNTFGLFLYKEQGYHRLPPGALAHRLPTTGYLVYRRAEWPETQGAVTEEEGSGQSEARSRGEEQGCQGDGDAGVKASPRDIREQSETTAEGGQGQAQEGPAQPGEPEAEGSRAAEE

In the case of `COc1ncccc1-c1nnn(-c2ccc(F)cc2)n1`, the AC50 [1] is reported as 26 µM (active), the IC50 [2] is reported as > 100 µM (not active) and the IC50 [3] is reported as > 100 µM (not active).
In the case of `Cc1nn(CCc2nnc(S)n2-c2cccc(Cl)c2)c(C)c1[N+](=O)[O-]`, the IC50 [4] is reported as > 59.6 µM (inactive), the IC50 [5] is reported as > 59.6 µM (inactive) and the IC50 [6] is reported as > 59.6 µM (inactive).
With `CC(C)Cn1c(S)nnc1-c1ccco1` the IC50 [4] was > 59.6 µM (inactive), the IC50 [5] was > 59.6 µM (inactive) and the IC50 [6] was > 59.6 µM (inactive).
In the case of `CCOc1ccc2oc(C(=O)Nc3cc(C)ccn3)c(C)c2c1`, the AC50 [1] is reported as 26 µM (active).
With `CCCCn1c(=O)[nH]c(=O)c2c(C(=O)OCC)cc(-c3cccs3)nc21` the IC50 [7] was 0.582 µM (active), the EC50 [8] was > 350 µM (not active) and the EC50 [9] was > 350 µM (not active).
In the case of `S=C(c1ccc(OCc2ccccc2)cc1)N1CCCC1`, the IC50 [10] is reported as 14 µM (active), the IC50 [11] is reported as 3.69 µM (active) and the IC50 [12] is reported as 11.1 µM (active). The IC50 [7] was > 9.98 µM (inactive) and the IC50 [13] was 8.38 µM (active).
For `O=C(NCCn1cc(SCc2ccccc2F)c2ccccc21)c1c(F)cccc1F`, the EC50 [14] was > 29.9 µM (inactive), the IC50 [15] was 38.4 µM (inactive) and the EC50 [16] was > 29.9 µM (inactive). The IC50 [17] was 3.49 µM (active).
With `O=C(O)[C@H]1CCCC[C@H]1C(=O)NCCc1ccccc1` the IC50 [18] was > 29.9 µM (inactive), the IC50 [19] was 7.35 µM (active) and the EC50 [20] was 0.37 µM (active). For the same compound, the EC50 [21] was > 29.9 µM (inactive).
For `Cc1cc2nc3n(c2cc1C)CC1CC(C(=O)NCCc2cccs2)N(C)C31` (stereo not drawn), the IC50 [18] was > 29.9 µM (inactive), the IC50 [19] was 8.5 µM (active) and the EC50 [20] was 2 µM (active). For the same compound, the EC50 [21] was > 29.9 µM (inactive).
With `COc1ccc(-n2nnnc2C(C2CC2)N2CCC(n3c(O)nc4ccccc43)CC2)cc1` (stereo not drawn) the IC50 [22] was 19.8 µM (inactive), the EC50 [14] was 22.4 µM (inactive) and the IC50 [15] was > 29.9 µM (inactive). For the same compound, the EC50 [16] was > 29.9 µM (inactive) and the IC50 [17] was > 9.96 µM (active).
In the case of `C[C@@H]1CCCCO[C@H](CN(C)C(=O)Nc2ccc(C(F)(F)F)cc2)[C@@H](C)CN([C@@H](C)CO)C(=O)c2cc(NS(=O)(=O)c3ccc(F)cc3)ccc2O1`, the AC50 [23] is reported as 4.88 µM (active) and the AC50 [24] is reported as > 70 µM (inactive).
In the case of `C[C@H]1CN([C@@H](C)CO)C(=O)c2cccc(NC(=O)c3ccncc3)c2O[C@@H]1CN(C)Cc1cccc(Cl)c1`, the AC50 [25] is reported as 0.0155 µM (active).
